The values that follow come from patent US20120214847A1, “2-[1-PHENYL-5-HYDROXY-4a-SUBSTITUTED-HEXAHYDROCYCLOPENTA[F]INDAZOL-5-YL]ETHYL PHENYL DERIVATIVES AS GLUCOCORTICOID RECEPTOR LIGANDS” (Merck Sharp & Dohme Corp., priority 2009, published 2012).

The test has as its target T1, human GR (Homo sapiens, UniProt P04150).
T1 construct: naturally expresses the human GR; endogenous in cells
T1 sequence (P04150 1-777): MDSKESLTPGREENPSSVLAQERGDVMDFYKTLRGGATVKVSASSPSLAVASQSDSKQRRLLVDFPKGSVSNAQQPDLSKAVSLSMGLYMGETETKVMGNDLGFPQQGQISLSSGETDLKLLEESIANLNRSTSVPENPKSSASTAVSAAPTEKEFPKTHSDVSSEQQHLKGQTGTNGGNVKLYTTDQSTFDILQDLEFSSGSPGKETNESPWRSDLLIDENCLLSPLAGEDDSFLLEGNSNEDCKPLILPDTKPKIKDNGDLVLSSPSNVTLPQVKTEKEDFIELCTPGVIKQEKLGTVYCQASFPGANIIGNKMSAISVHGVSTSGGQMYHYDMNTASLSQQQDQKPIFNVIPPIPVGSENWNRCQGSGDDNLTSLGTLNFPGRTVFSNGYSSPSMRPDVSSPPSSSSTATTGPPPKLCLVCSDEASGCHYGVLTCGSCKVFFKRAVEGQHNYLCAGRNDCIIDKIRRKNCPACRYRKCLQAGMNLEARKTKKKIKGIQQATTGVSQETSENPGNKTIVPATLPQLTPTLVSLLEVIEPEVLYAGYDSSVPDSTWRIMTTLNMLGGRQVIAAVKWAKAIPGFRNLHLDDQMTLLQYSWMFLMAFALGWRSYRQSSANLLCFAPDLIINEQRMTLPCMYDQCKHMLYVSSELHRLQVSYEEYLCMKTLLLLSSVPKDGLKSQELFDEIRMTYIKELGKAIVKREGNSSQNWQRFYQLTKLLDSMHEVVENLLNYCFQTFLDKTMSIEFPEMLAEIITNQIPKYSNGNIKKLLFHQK
Put plainly: Trans-activation modulation of glucocorticoid receptor (GRAMMER), MMTV-LUC reporter in A549 cells. The class given is cell-based. The note with it: for Emax: A549, A549 cells, read-out: Transactivation A549 Cells Grammer Emax (%); for Emax / Transactivation A549 Cells Grammer Emax (%): Emax relative to the activity obtained with 300 nM dexamethasone; for EC50 / Transactivation A549 Cells Grammer Emax (%): A549 cells; for EC50: IP = inflection point, read-out: Transactivation A549 Cells Grammer IP. From the text:
Trans-Activation Modulation of Glucocorticoid Receptor (GRAMMER)
This assay assesses the ability of test compounds to control transcription from the MMTV-LUC reporter gene in lung adenocarcinoma A549 cells or HeLa cells, a human […] cell line that naturally expresses the human GR. The assay measures induction of a modified MMTV LTR/promoter linked to the LUC reporter gene.
The routine transient assay consists of plating 7,000-25,000 cells/well of a white, clear-bottom 96-well plate. Alternatively, 384-well plates can be used at a cell concentration of 10,000/well. The media that the cells are plated in is “exponential growth medium” which consists of phenol red-free RPMI1640 containing 10% FBS, 4 mM L-glutamine, 20 mM HEPES, 10 ug/mL human insulin, and 20 ug/mL gentamicin. Incubator conditions are 37° C. and 5% C02. The transfection is done in batch mode. The cells are trypsinized and counted to the right cell number in the proper amount of fresh media. It is then gently mixed with the FuGene6/DNA 25 mix and plated onto the 96 or 384-well plate, all the wells receive 100 uL or 40 uL, respectively, of medium+lipid/DNA complex then incubated 37° C. overnight. The transfection cocktail consists of serum-free OptiMEM, FuGene6 reagent and DNA. The manufacturer's (Roche Biochemical) protocol for cocktail setup is as follows: The lipid to DNA ratio is approximately 2.5:1 and the incubation time is 20 min at room temperature. Sixteen to 24 h after transfection, the cells are treated with dexamethasone to a final concentration of 10 nM as well as the compound of interest, such that final DMSO (vehicle) concentration is equal to or less than 1%. Each plate also contains samples that are treated with 10 nM dexamethasone alone, which is used as the 100% activity control. The cells are exposed to the compounds for 24 h. After 24 h, the cells are lysed by a Promega cell culture lysis buffer for approximately 30 min and then the luciferase activity in the extracts is assayed in the 96-well format luminometer. In 384 well format, Steady-Glo (Promega) or Steady-Lite (PerkinElmer) can be used by adding an equal volume of reagent to the media present in each well. Activity induced by 10 nM dexamethasone alone is set at 100% activity. Antagonist activity is calculated by determining the decrease in dexamethasone-induced activity in response to compound treatment relative to samples that were treated with dexamethasone alone. Results are expressed as % inhibition of 10 nM dexamethasone activity or as fold of 10 nM dexamethasone activity. This transactivation assay can be performed in an agonist and antagonist mode to identify these different activities.
Activity of test compounds is calculated as the Emax relative to the activity obtained with 300 nM dexamethasone. […] The exemplified tissue selective glucocorticoid receptor modulators of the present invention display agonist activity in this assay of greater than 5% and less than 100%, and maximal transactivation activity less then maximal transrepression activity. The action of compounds is also tested in an antagonist mode (Anti-GRAMMER) in which the cells are treated with medium containing an agonist such as 10 nM DEX and the ability of agents to inhibit the activation by an agonist is measured.

Regarding `CC[C@]12Cc3cnn(-c4ccc(F)cc4)c3C=C1CC[C@@]2(O)CCc1cncc(F)c1` [Example 21, (4aS,5R)-4a-Ethyl-1-(4-fluorophenyl)-5-[2-(5-fluoropyridin-3-yl)ethyl]-1,4,4a,5,6,7-hexahydrocyclopenta[f]indazol-5-ol], the Emax – broadly, the maximal effect, on the per cent scale that the assay sets – was found to be 31% and the EC50 came to 0.076 µM.

For `OC(C[C@]1(O)CCC2=Cc3c(cnn3-c3ccc(F)cc3)C[C@@]21C1CC1)c1ccc(F)cn1` (single isomer, unassigned) [Example 79a], the Emax turned out to be 10% and the EC50 is 0.186 µM.

As for `CC[C@]12Cc3cnn(-c4ccc(F)cc4)c3C=C1CC[C@@]2(O)CCc1cccc(F)c1CC(N)=O` [Example 60, 2-(2-{2-[(4aS,5R)-4a-Ethyl-1-(4-fluorophenyl)-5-hydroxy-1,4,4a,5,6,7-hexahydrocyclopenta[f]indazol-5-yl]ethyl}-6-fluorophenyl)acetamide], the Emax amounted to 39% and the EC50 was 0.038 µM.

In the case of `CC[C@]12Cc3cnn(-c4cccnc4)c3C=C1CC[C@@]2(O)CCc1ccc(F)cc1C#N` [Example 9, 2-{2-[(4aS,5R)-4a-Ethyl-5-hydroxy-1-(pyridin-3-yl)-1,4,4a,5,6,7-hexahydrocyclopenta[f]indazol-5-yl]ethyl}-5-fluorobenzonitrile], the Emax came out at 15% and the EC50 worked out at 0.076 µM.

Consider `N#Cc1ccccc1CC[C@]1(O)CCC2=Cc3c(cnn3-c3ccccc3)C[C@@]21C1CC1` [Example 27, 2-{2-[(4aR,5R)-4a-Cyclopropyl-5-hydroxy-1-phenyl-1,4,4a,5,6,7-hexahydrocyclopenta[f]indazol-5-yl]ethyl}benzonitrile], for which the Emax was found to be 13% and the EC50 came to 0.023 µM.

As for `CC[C@]12Cc3cnn(-c4ccc(F)cc4)c3C=C1CC[C@@]2(O)CCc1ncccc1S(=O)(=O)C(C)C` [Example 62, (4aS,5R)-4a-Ethyl-1-(4-fluorophenyl)-5-{2-[3-(propan-2-ylsulfonyl)pyridin-2-yl]ethyl}-1,4,4a,5,6,7-hexahydrocyclopenta[f]indazol-5-ol], the Emax stood at 43% and the EC50 is 0.035 µM.

In the case of `CC[C@]12Cc3cnn(-c4ccccc4)c3C=C1CC[C@@]2(O)CCc1cccc(F)c1C#N` [Example 15, 2-{2-[(4aS,5R)-4a-Ethyl-5-hydroxy-1-phenyl-1,4,4a,5,6,7-hexahydrocyclopenta[f]indazol-5-yl]ethyl}-6-fluorobenzonitrile], the Emax came out at 29% and the EC50 is 0.062 µM.

Regarding `CCS(=O)(=O)c1ccccc1CC[C@]1(O)CCC2=Cc3c(cnn3-c3ccc(F)cc3)C[C@@]21C1CC1` [Example 59, (4aR,5R)-4a-Cyclopropyl-5-{2-[2-(ethylsulfonyl)phenyl]ethyl}-1-(4-fluorophenyl)-1,4,4a,5,6,7-hexahydrocyclopenta[f]indazol-5-ol], the Emax is 7% and the EC50 turned out to be 0.035 µM.

Regarding `CC[C@]12Cc3cnn(-c4cccnc4)c3C=C1CC[C@@]2(O)CCc1ccccc1C(N)=O` [Example 13, 2-{2-[(4aS,5R)-4a-Ethyl-5-hydroxy-1-(pyridin-3-yl)-1,4,4a,5,6,7-hexahydrocyclopenta[f]indazol-5-yl]ethyl}benzamide], the maximal effect (Emax) was determined as 34% and the EC50 stood at 0.224 µM.

On to `CC(C)(CO)NC(=O)c1cc(F)cnc1CC[C@]1(O)CCC2=Cc3c(cnn3-c3ccc(F)cc3)C[C@@]21C1CC1` [Example 48, 2-{2-[(4aR,5R)-4a-Cyclopropyl-1-(4-fluorophenyl)-5-hydroxy-1,4,4a,5,6,7-hexahydrocyclopenta[f]indazol-5-yl]ethyl}-5-fluoro-N-(1-hydroxy-2-methylpropan-2-yl)pyridine-3-carboxamide], for which the Emax is 50% and the EC50 amounted to 0.026 µM.

Consider `CC[C@]12Cc3cnn(-c4ccc(F)cc4)c3C=C1CC[C@@]2(O)CC(O)c1ncccc1F` (stereo partly drawn) [Example 77, (4aS,5R)-4a-Ethyl-1-(4-fluorophenyl)-5-[2-(3-fluoropyridin-2-yl)-2-hydroxyethyl]-1,4,4a,5,6,7-hexahydrocyclopenta[f]indazol-5-ol], for which the “Transactivation A549 Cells Grammer Emax (%)” value came out at 23% and the EC50 is 0.115 µM.

Take `CC[C@]12Cc3cnn(-c4ccc(F)cc4)c3C=C1CC[C@@]2(O)CCc1cc(F)ccn1` [Example 18, (4aS,5R)-4a-Ethyl-1-(4-fluorophenyl)-5-[2-(4-fluoropyridin-2-yl)ethyl]-1,4,4a,5,6,7-hexahydrocyclopenta[f]indazol-5-ol]: the Emax is 32% and the EC50 stood at 0.052 µM.

Consider `CC[C@]12Cc3cnn(-c4ccc(F)cc4)c3C=C1CC[C@@]2(O)CC(O)c1ccc(F)cn1` (single isomer, unassigned) [Example 69b], for which the “Transactivation A549 Cells Grammer Emax (%)” value is 26% and the EC50 came to 0.113 µM.

On to `NC(=O)c1cccnc1CC[C@]1(O)CCC2=Cc3c(cnn3-c3ccc(F)cc3)C[C@@]21C1CC1` [Example 1, 2-{2-[(4aR,5R)-4a-Cyclopropyl-1-(4-fluorophenyl)-5-hydroxy-1,4,4a,5,6,7-hexahydrocyclopenta[f]indazol-5-yl]ethyl}pyridine-3-carboxamide], for which the Emax amounted to 27% and the EC50 was determined as 0.061 µM.

`CC[C@]12Cc3cnn(-c4cccc(F)c4)c3C=C1CC[C@@]2(O)CCc1ccccc1C(N)=O` [Example 11, 2-{2-[(4aS,5R)-4a-Ethyl-1-(3-fluorophenyl)-5-hydroxy-1,4,4a,5,6,7-hexahydrocyclopenta[f]indazol-5-yl]ethyl}benzamide]: the Emax is 41% and the EC50 worked out at 0.083 µM.

Turning to `CC[C@]12Cc3cnn(-c4ccccc4)c3C=C1CC[C@@]2(O)CCc1ccc(F)cc1C(N)=O` [Example 6], the Emax was found to be 26% and the EC50 came to 0.178 µM.

Consider `O=S(=O)(c1ccccc1CC[C@]1(O)CCC2=Cc3c(cnn3-c3ccc(F)cc3)C[C@@]21C1CC1)C1CC1` [Example 63, (4aR,5R)-4a-Cyclopropyl-5-{2-[2-(cyclopropylsulfonyl)phenyl]ethyl}-1-(4-fluorophenyl)-1,4,4a,5,6,7-hexahydrocyclopenta[f]indazol-5-ol], for which the Emax was determined as 5% and the EC50 amounted to 0.042 µM.

In the case of `N#Cc1ccnc(CC[C@]2(O)CCC3=Cc4c(cnn4-c4ccc(F)cc4)C[C@@]32C2CC2)c1` [Example 35, 2-{2-[(4aR,5R)-4a-Cyclopropyl-1-(4-fluorophenyl)-5-hydroxy-1,4,4a,5,6,7-hexahydrocyclopenta[f]indazol-5-yl]ethyl}pyridine-4-carbonitrile], the Emax came to 17% and the EC50 turned out to be 0.025 µM.
